Experimental data published in patent US20240279191A1, “SMALL MOLECULE INHIBITORS OF TEAD-YAP” (The General Hospital Corporation, priority 2021, published 2024).
Where two headings read alike, the source gives them in different places. Values belong to the molecule of their own block, whether it stands above or below them.

Key:
in vitro [1] = conditions: human
in vitro [2] = conditions: mouse
physchem = conditions: pH 7.4
logD 7.4 = conditions: pH 7.4
[3] = Metabolic stability CLint, human (Tables H1, H2)
[4] = Metabolic stability CLint, mouse (Tables H1, H2)
TEAD = assay: WB primary assay (SAR tables F1, F3A); assay type: biochemical
H226 = H226 growth inhibition (SAR tables); assay type: cell-based; conditions: for GI50: Homo sapiens, NCI-H226
KNS62 = KNS62 growth inhibition (SAR tables); assay type: cell-based
[5] = Aqueous solubility (Aq Sol); assay type: physicochemical
Metabolic stability MLM = conditions: for Met stab MLM, 15 min / Met stab MLM, 60 min: % parent remained per Table G2
[6] = Pharmacokinetics / oral bioavailability in male CD-1 mice; assay type: in vivo; conditions: for AUC(0-inf): Table F2A; for half-life: read-out: t1/2, β (converted)
Text: Example G. Oral Bioavailability of MGH-CP-715 in Male CD-1Mice

[7] = Metabolic stability in mouse hepatic microsomes (Scripps Florida DMPK Core); assay type: in vitro ADME; conditions: for half-life / microsomal CLint: mouse, liver microsomes; for half-life: 1 mg/mL hepatic microsomes; for microsomal CLint: hepatic microsomes, read-out: Intrinsic Clearance, Mouse (Clint); for metabolic stability (in words): Tables E1 and E2, human and mouse microsomes
H226 cells = assay: Cell proliferation assay (MTT), H226; conditions: 6 days, FIG. 8C
TEAD2 = TEAD2 (Homo sapiens, UniProt Q15562); assay: Inhibition of TEAD2 auto-palmitoylation in vitro; conditions: FIG. 1; 0.05 and 0.5 μM for 30 mins
TEAD2, sequence (Q15562 whole entry): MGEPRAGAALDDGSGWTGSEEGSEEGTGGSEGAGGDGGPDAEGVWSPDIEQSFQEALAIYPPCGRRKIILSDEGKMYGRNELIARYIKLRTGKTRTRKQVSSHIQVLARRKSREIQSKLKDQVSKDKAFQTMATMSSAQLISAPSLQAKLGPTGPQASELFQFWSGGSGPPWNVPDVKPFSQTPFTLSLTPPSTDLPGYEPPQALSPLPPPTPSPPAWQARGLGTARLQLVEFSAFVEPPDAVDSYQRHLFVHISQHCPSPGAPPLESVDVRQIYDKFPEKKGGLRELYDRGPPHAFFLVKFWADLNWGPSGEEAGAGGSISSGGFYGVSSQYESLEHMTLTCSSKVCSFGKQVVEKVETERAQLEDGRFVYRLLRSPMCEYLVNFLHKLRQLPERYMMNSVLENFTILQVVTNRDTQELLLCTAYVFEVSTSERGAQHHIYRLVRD

[8] = Metabolic stability in human hepatic microsomes (Scripps Florida DMPK Core); assay type: in vitro ADME; conditions: liver microsomes; for half-life: 1 mg/mL hepatic microsomes; for microsomal CLint: hepatic microsomes, read-out: Intrinsic Clearance, Human (Clint)
[9] = male, CD-1, mouse, in vivo, 1 mg/Kg IV
[10] = male, CD-1, mouse, in vivo, 10 mg/Kg PO

SMILES: NC(=O)c1cncc(OC(=O)N2CCC(CCc3cccc(C(=O)N4CCCC4)c3)CC2)c1
CLint scaled (in vitro [1]): 86 mL/min/kg
CLint scaled (in vitro [2]): 90 mL/min/kg
logD (physchem): 2.6

SMILES: O=C(NCCc1cccc(F)c1)C1CCN(C(=O)Oc2ccccc2)CC1
logD (logD 7.4): 2.59
CLint scaled [3]: 54 mL/min/kg
CLint scaled [4]: 87 mL/min/kg

SMILES: O=C(Nc1ccccc1)C1CCN(C(=O)Oc2cccnc2)CC1
logD (logD 7.4): 2.16
CLint human [3]: no depletion (stable)
CLint scaled [4]: 47 mL/min/kg

SMILES: C[C@@H]1CN(C(=O)Nc2ccccc2)[C@@H](C)CN1C(=O)c1cccc(OCCC2CCCCC2)c1 [MGH-CP-709]
WB: % inh. @ 1 μM (TEAD): 45%
WB: % inh. @ 10 μM (TEAD): 77%
GI50 (H226): 1.97 µM
KNS62: value at 1 μM (KNS62): 28
KNS62: value at 10 μM (KNS62): 46
Aq Sol [5]: 2 µM
Met stab MLM, 15 min (Metabolic stability MLM; 15 min): 26%
Met stab MLM, 60 min (Metabolic stability MLM; 60 min): < 5%

SMILES: CC1CN(C(=O)Nc2ccccc2)CCN1C(=O)c1cccc(OCCC2CCCCC2)c1 (stereo not drawn) [MGH-CP-710]
WB: % inh. @ 1 μM (TEAD): 54%
WB: % inh. @ 10 μM (TEAD): 81%
GI50 (H226): 1.04 µM
KNS62: value at 1 μM (KNS62): 35
KNS62: value at 10 μM (KNS62): 51
Aq Sol [5]: <2 µM
Met stab MLM, 15 min (Metabolic stability MLM; 15 min): 41%
Met stab MLM, 60 min (Metabolic stability MLM; 60 min): < 5%

SMILES: O=C(Oc1ccccc1)N1CCN(C(=O)c2cccc(OCCC3CCCCC3)c2)CC1 [MGH-CP-714]
WB: % inh. @ 1 μM (TEAD): 16%
WB: % inh. @ 10 μM (TEAD): 94%
GI50 (H226): 2.64 µM
KNS62: value at 1 μM (KNS62): 10
KNS62: value at 10 μM (KNS62): 48
Aq Sol [5]: <2 µM
Met stab MLM, 15 min (Metabolic stability MLM; 15 min): 29%
Met stab MLM, 60 min (Metabolic stability MLM; 60 min): < 5%

SMILES: O=C(Nc1ccccc1)N1CCN(Cc2cccc(OCCC3CCCCC3)c2)CC1 [MGH-CP-715]
WB: % inh. @ 1 μM (TEAD): 35%
WB: % inh. @ 10 μM (TEAD): 95%
H226: value at 1 μM (H226; 1 μM): 16
H226: value at 10 μM (H226; 10 μM): 69
KNS62: value at 1 μM (KNS62): 4
KNS62: value at 10 μM (KNS62): 57
Aq Sol [5]: <2 µM
F (oral bioavailability) ([6]; 10 mg/Kg PO versus 1 mg/Kg IV): ~5.7%
bioavailability ([6]; male, CD-1, mouse, in vivo, oral, 10 mg/Kg, 10 mg/Kg PO versus 1 mg/Kg IV, read-out: F (oral bioavailability)): ~5%
AUC(0-t) [6, 9]: 663 ng·h/mL
MRT [6, 9]: 88.2 min
clearance [6, 9]: 22.6 mL/min/kg
AUC(0-inf) [6, 9]: 736 ng·h/mL
Cmax ([6]; male, CD-1, mouse, in vivo, 1 mg/Kg IV, read-out: C0/Cmax (C0)): 834 ng/mL
Vd ([6]; male, CD-1, mouse, in vivo, 1 mg/Kg IV, read-out: VSS): 3.61 L/kg
half-life [6, 9]: 223 min
AUC(0-t) [6, 10]: 394 ng·h/mL
MRT [6, 10]: 157 min
Tmax [6, 10]: 15 min
AUC(0-inf) [6, 10]: 422 ng·h/mL
Cmax ([6]; male, CD-1, mouse, in vivo, 10 mg/Kg PO, read-out: C0/Cmax (Cmax)): 108 ng/mL
half-life [6, 10]: 112 min
clearance (in words) ([6]; mouse, in vivo): low
volume of distribution (in words) ([6]; mouse, in vivo): high
% Parent remained MLM, 15 min (Metabolic stability MLM; 15 min, Table G2): 66%
Met stab MLM, 15 min (Metabolic stability MLM; 15 min): 66%
% Parent remained MLM, 60 min (Metabolic stability MLM; 60 min, Table G2): 15%
Met stab MLM, 60 min (Metabolic stability MLM; 60 min): 15%

SMILES: O=C(Nc1ccccc1)N1CCN(C(=O)c2ccnc(OCCC3CCCCC3)c2)CC1 [MGH-CP-716]
WB: % inh. @ 1 μM (TEAD): 59%
WB: % inh. @ 10 μM (TEAD): 96%
activity in cellular assays (in words) (H226): active
GI50 (H226): 0.236 µM
KNS62: value at 1 μM (KNS62): 54
KNS62: value at 10 μM (KNS62): 60
MLM stability (in words) (Metabolic stability MLM): not improved
Met stab MLM, 15 min (Metabolic stability MLM; 15 min): 40%
Met stab MLM, 60 min (Metabolic stability MLM; 60 min): < 5%

SMILES: O=C(Nc1ccccc1)N1C[C@@H]2C[C@H]1CN2C(=O)c1cccc(OCCC2CCCCC2)c1 [MGH-CP-717]
activity in primary assay (in words) (TEAD): inactive
WB: % inh. @ 1 μM (TEAD): −2%
WB: % inh. @ 10 μM (TEAD): 22%
MLM stability (in words) (Metabolic stability MLM): poor
Met stab MLM, 15 min (Metabolic stability MLM; 15 min): 6%
Met stab MLM, 60 min (Metabolic stability MLM; 60 min): < 5%

SMILES: O=C(Oc1ccccc1)N1CCN(Cc2cccc(OCCC3CCCCC3)c2)CC1 [MGH-CP-718]
activity in primary assay (in words) (TEAD): inactive
WB: % inh. @ 1 μM (TEAD): −4%
WB: % inh. @ 10 μM (TEAD): 11%
Met stab MLM, 15 min (Metabolic stability MLM; 15 min): 59%
Met stab MLM, 60 min (Metabolic stability MLM; 60 min): 13%
MLM stability (in words) (Metabolic stability MLM; mouse, microsomes): moderately stable

SMILES: Nc1ccc(NC(=O)N2CCN(C(=O)c3cccc(OCCC4CCCCC4)c3)CC2)cc1 [TM112, N-(4-aminophenyl)-4-(3-(2-cyclohexylethoxy)benzoyl)piperazine-1-carboxamide]
H226 anti-proliferative potency relative to TM2 (in words) (H226 cells): less potent than TM2

More lines, main results first:

logD (logD 7.4): 2.38
CLint scaled [3]: 109 mL/min/kg
CLint scaled [4]: 156 mL/min/kg
SMILES: O=C(Nc1ncccn1)N1CCN(C(=O)c2cccc(OCCC3CCCCC3)c2)CC1 [TM23]

half-life [7]: 11.2 min
microsomal CLint [7]: 62 µL/min/mg
inhibition of TEAD2 auto-palmitoylation (in words) (TEAD2): significantly decrease the activities
SMILES: O=C(Nc1ccccc1)N1CCN(C(=O)c2cccc(OCCC3CCOCC3)c2)CC1 [TM45, N-phenyl-4-(3-(2-(tetrahydro-2H-pyran-4-yl)ethoxy)benzoyl)piperazine-1-carboxamide]
H226 anti-proliferative potency relative to TM2 (in words) (H226 cells): less potent than TM2

half-life [8]: 11.1 min
microsomal CLint [8]: 62 µL/min/mg
metabolic stability (in words) [7]: improved metabolic stability
half-life [7]: 16.7 min
microsomal CLint [7]: 41 µL/min/mg
SMILES: Nc1cccc(NC(=O)N2CCN(C(=O)c3cccc(OCCC4CCCCC4)c3)CC2)c1 [TM93]

half-life [7]: 1.7 min
microsomal CLint [7]: 415 µL/min/mg
SMILES: O=C(Nc1ccccc1)N1CCN(C2(c3cccc(OCCc4ccccc4)c3)COC2)CC1 [TM97]

half-life [8]: 5.8 min
microsomal CLint [8]: 120 µL/min/mg
metabolic stability (in words) [7]: improved metabolic stability
half-life [7]: 9.6 min
microsomal CLint [7]: 72 µL/min/mg
SMILES: O=C(Nc1ccccc1)N1CCN([S+]([O-])c2cccc(OCCc3ccccc3)c2)CC1 (stereo not drawn) [TM100]
